How the values were obtained:
[1] = biological target: queuine-insertase enzyme complex (Homo sapiens, UniProt Q9BXR0); experiment: [14C] guanine displacement assay (queuine-insertase substrate); type: biochemical
Text: The skilled reader will be aware of methods for determining whether or not a particular molecule is a substrate for the queuine-insertase enzyme complex. For example, molecules capable of acting as a queuine-insertase enzyme complex substrate may be identified by use of a displacement assay as described below (FIG. 1):
Production of [8-^14C] Guanine Labeled tRNA (tRNA*)
Before adding the 8-[^14C] guanine solution to the reaction the solution was neutralised with an equal volume (vol/vol) 0.01 M NaOH, as the [8-^14C] Guanine is supplied in 0.01 M HCl aqueous solution. A stock solution of yeast tRNA from Saccharomyces cerevisiae was made to a concentration of 2 absorbance units (260 nm) in ultrapure nuclease-free water. The recombinant Escherichia coli (E. coli) tRNA guanine transglycosylase enzyme (E. coli TGT) containing an N-terminal polyhistidine tag was produced in BL21 BL21(DE3) tgt:Kmr cells as described previously (Boland et al., 2009).
The reaction was incubated for 2 h at 37° C. After incubation the reaction was made up to 400 μL with buffer. […] The tRNA* pellet was resuspended in 20 μL nuclease-free water and the concentration measured spectrophotometrically at A260. […]
After incubation the reaction was loaded onto the column and spun at 0.1×g for 10 seconds. […] The vials containing the flow-through and washes are counted for displaced [^14C] guanine. […]

[2] = system: chronic monophasic EAE disease; experiment: Chronic monophasic EAE disease in mice; type: in vivo, mice (C57BL/6)
Procedure: To assess the potential of these compounds in vivo, a chronic monophasic EAE disease in mice was induced before treatment with the new chemical entity (NCE). EAE Disease was induced in 8-10 week old female mice (C57BL/6) by sub-cutaneous (s.c.) injection of 200 II emulsion containing 150 μg […] peptide (Genscript) in Complete Freund's Adjuvant (CFA; containing 5 mg/ml heat-inactivated Mycobacterium tuberculosis). On the same day, mice were administered 500 ng Pertussis Toxin (Kaketsuken, Japan) intraperitoneally (i.p.) and again two days later. Disease severity was recorded every 24 hours: 0-Normal; 1-flaccid tail; 2-imparied/wobbly gait; 3-complete hind limb weakness; 4-hind limb and forelimb paralysis; 5-moribund state/dead. Protocol is based on the Nature Protocols for Active induction of experimental allergic encephalomyelitis, which includes the scoring methodology: • Stromnes I M, Goverman J M (2006) Active induction of experimental allergic encephalomyelitis. Nat Protoc. 1(4):1810-9.
The EAE score relates to an assessment of disease progression with respect to issues like tail paralysis and limb paralysis, a higher score is a worse condition. A score of 1 indicates decreased tail tone, a score of 2 indicates hind leg weakness (paraparesis), a score of 3 indicates hind limb paralysis and/or incontinence. Note that the untreated animals have a continuous and progressive worsening of disease.
This contrasts with the sustained drop in body weight of non-treated EAE diseased animals to a level 86.4% that of controls at 21 dpi (17.8 grams versus 20.6 grams). Motor coordination and hind-limb strength were also evaluated by the ability of mice to cross a horizontal bar (FIG. 7). Non-diseased animals crossed the bar with an average time of 4.3±0.57 seconds.

[3] = biological target: T1, HPRT (Homo sapiens, UniProt P00492); experiment: HPRT assay (substrate or inhibitor of HPRT); type: biochemical; conditions: in vitro, FIG. 2
T1 sequence (P00492 1-218): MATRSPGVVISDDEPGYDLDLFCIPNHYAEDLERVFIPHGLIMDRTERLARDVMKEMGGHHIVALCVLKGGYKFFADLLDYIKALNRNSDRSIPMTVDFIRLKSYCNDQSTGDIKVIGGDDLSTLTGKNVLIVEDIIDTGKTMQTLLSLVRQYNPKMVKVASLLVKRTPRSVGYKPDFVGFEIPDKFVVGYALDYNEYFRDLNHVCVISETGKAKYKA
Text: Similarly, the skilled reader will be aware of methods suitable for determining whether a compound is a substrate or inhibitor of HPRT. For example, molecules that are […] for HPRT may be identified by use of the following assay:
Assay to Evaluate Compounds as Substrates or Inhibitors of the Hypoxanthine-Guanine Phosphoribosyltransferase Enzyme or ‘HPRT Assay’ (FIG. 2).
Preparation and Equilibration of Column:
Dowex-1×8, mesh size 200-400, was weighed out in a sterile 50 ml tube and washed 3 times with aqueous 1 M HCl to charge the resin. The resin was then washed 5-6 times with (20 mls each) Milli-Q H2O until a neutral pH was reached. Columns (Bio-rad 10 mL plastic columns) were set up with 1 mL of wet Dowex (wet mix applied, allowed to settle and more applied until a packed volume of 1 mL was reached). The packed resin was rinsed with 10 volumes (v/v) milli-Q H2O to ensure that a neutral pH and consistent packing was achieved.
HPRT Reactions are set up in 100 μL volume in triplicate with the following components: […]
After inactivation, the reactions were cooled to room temperature (using ice), before being applied to a 1 mL packed resin column of Dowex-1×8, mesh size 200-400. […] 15 mL of scintillation cocktail (Ecoscint A) was added and vials counted to evaluate the level of conversion of [8-^14C]-guanine to GMP. […]

[4] = system: wild-type T cells; experiment: Proliferation of wild-type cells; type: cell-based; conditions: 100 μM, FIG. 4a
Text: (§1) FIGS. 4a, 4b, 4c, and 4d depict the molecules effects on total percentage of proliferation in wild-type spleenocytes, HPRT knockout spleenocytes, HPRT:TGT double knockout spleenocytes, and wild-type versus single TGT knockout spleenocytes respectively;

[5] = system: HPRT:TGT double knockout spleenocytes; experiment: Proliferation of TGT:HPRT double knockout cells; type: cell-based; conditions: 100 μM, FIG. 4c
Text: as §1

[6] = system: TGT KO cells; experiment: Proliferation of TGT knockout cells; type: cell-based; conditions: 100 μM, FIG. 4d
Text: as §1

[7] = system: DNA; conditions: incorporated into DNA after HPRT activity; cited from earlier work
[8] = system: Experimental Autoimmune Encephalomyelitis; EAE; conditions: earlier work; cited from earlier work
[9] = biological target: T1, HPRT; conditions: higher for HPRT; cited from earlier work

Chain of queuine-insertase enzyme complex (Q9BXR0 whole entry): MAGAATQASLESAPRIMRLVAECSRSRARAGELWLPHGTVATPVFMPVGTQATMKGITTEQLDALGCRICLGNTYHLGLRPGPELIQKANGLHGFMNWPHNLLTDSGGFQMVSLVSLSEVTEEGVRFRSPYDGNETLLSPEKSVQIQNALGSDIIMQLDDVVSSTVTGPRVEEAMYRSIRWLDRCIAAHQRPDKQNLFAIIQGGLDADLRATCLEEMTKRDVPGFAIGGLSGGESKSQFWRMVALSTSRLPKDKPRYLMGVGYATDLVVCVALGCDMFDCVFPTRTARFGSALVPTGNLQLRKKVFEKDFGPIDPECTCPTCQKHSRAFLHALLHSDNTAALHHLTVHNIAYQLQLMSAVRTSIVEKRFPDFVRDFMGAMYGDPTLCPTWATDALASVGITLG
Chain of queuine-insertase enzyme complex (Q9H974 whole entry partner): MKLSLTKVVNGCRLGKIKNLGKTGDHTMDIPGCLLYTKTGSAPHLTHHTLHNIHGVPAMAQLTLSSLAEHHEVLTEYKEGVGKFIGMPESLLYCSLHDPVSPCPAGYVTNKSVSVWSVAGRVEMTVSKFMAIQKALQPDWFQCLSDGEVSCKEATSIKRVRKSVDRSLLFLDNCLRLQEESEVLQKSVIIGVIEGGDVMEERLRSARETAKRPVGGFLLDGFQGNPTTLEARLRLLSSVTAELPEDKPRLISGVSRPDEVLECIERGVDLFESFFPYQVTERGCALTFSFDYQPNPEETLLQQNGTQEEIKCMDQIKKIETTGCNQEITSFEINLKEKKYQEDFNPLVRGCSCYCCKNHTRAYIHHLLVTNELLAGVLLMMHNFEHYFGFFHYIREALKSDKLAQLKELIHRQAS

Cl.Nc1nc2[nH]cc(CNCCCc3ccccc3)c2c(=O)[nH]1 [Compound I, N-((2-amino-4-oxo-4,7-dihydro-3H-pyrrolo[2,3-d]pyrimidin-5-yl)methyl)-3-phenylpropan-1-aminium chloride]
substrate for TGT (queuine-insertase enzyme complex) ([1]; in vitro, recombinant TGT enzyme, FIG. 1): substrate for TGT | EAE score outcome after 4 daily treatments ([2]; EAE mice, 30 mg/kg, i.p., FIG. 5): disease free | time to reversal of symptoms ([2]; EAE mice, 30 mg/kg, i.p., highest dosage, FIG. 5): ≤ 24 h | EAE disease progression ([2]; EAE mice, lower doses, FIG. 5): disease progression was halted and reversed | motor coordination and hind-limb strength (horizontal bar crossing) ([2]; EAE mice, within 4 treatments, FIG. 7): fully restored the performance of EAE diseased mice to control levels | weight level relative to controls ([2]; treated EAE mice, 21 days post inoculation, FIG. 6): 96.6% | body weight ([2]; treated EAE mice, 21 days post inoculation, controls 20.6 grams, FIG. 6): 19.9 grams | substrate or inhibitor of HPRT [3]: not to be a substrate or inhibitor | proliferation [4]: less than 50% | effect on proliferation [5]: essentially unaffected | effect on proliferation [6]: lack of effect

Nc1nc2nc[nH]c2c(=S)[nH]1 [Example 6TG, 6-thioguanine]
genotoxicity [7]: genotoxic | effect on the murine model of chronic MS (EAE) [8]: dramatic effect | substrate potency for HPRT relative to queuine-insertase enzyme complex [9]: approx. 10 fold

Nc1nc2[nH]cc(CN[C@H]3C=C[C@H](O)[C@@H]3O)c2c(=O)[nH]1 [queuine, 2-amino-5-((((1S,4S,5R)-4,5-dihydroxycyclopent-2-en-1-yl)amino)methyl)-3,7-dihydro-4H-pyrrolo[2,3-d]pyrimidin-4-one, reference compound]
maximum displacement of [14C] guanine ([1]; 200 μM compound, background ≤10 pmol, ≥50 pmol counts as positive substrate): 240 pmol
